Measured values: US20230278953A1, “WATER SOLUBLE PRODRUGS OF PTBA FOR USE IN HDAC INHIBITION AND ENHANCING RENAL RECOVERY FOLLOWING ACUTE KIDNEY INJURY” (KLOTHO THERAPEUTICS, INC., priority 2020, published 2023)
≈ marks a conversion by molar mass, not a printed value.

Assays:
[1] = tested on: cisplatin induced acute kidney injury (CI-AKI); experiment: cisplatin induced acute kidney injury (CI-AKI) in mice, Compound 3; format: in vivo, C57BL/6J mice
Procedure: The aim of the study was to investigate the efficacy of test compounds in the model of cisplatin induced acute kidney injury (CI-AKI) in mice.
Serum analysis for urea (BUN) was performed on the 5th day and 9th days after cisplatin administration. The mean body weight loss per group was calculated every day of the study as percentage loss of initial (day 0) weight for each individual animal.
Study design, animal selection, handling and treatment were all in accordance with the CRO's study protocols and Institutional Animal Care and Use Guidelines Animal treatment and serum samples preparation were conducted by the Animal Laboratory personnel at the CRO. 60 female C57BL/6J mice 9-12 weeks old were randomized by body weight and divided into 2 groups, 30 animals each. Body weights ranged from 13.9 to 22.0 g with an average body weight across all groups 17.75 g (SD=1.30; CV=7.3%). Each mouse was treated with a single dose via IP route of administration with cisplatin at the dose of 11 mg/kg on the day 0 of the study. […] The mice in Group 1 remained untreated after the cisplatin injection until the terminal sacrifice.
Cisplatin was administered without dilution as a factory-made 1 mg/ml solution for infusion at the injection volume of 11 ml/kg for the dose of 11 mg/kg. […] Only freshly prepared formulation was used for each dosing; each working formulation batch was prepared immediately prior to the administration. The working formulations were sterile filtered using 0.2 μm cellulose acetate syringe filters before injections. The dosing volume for the test compound was 5 ml/kg of body weight. The working formulations were administered as transparent clear solutions. Intraperitoneal (IP) route of administration was used in the study. Urea (BUN) was determined in the serum using a commercial kit according to the manufacturer's instructions. […] The rate of absorbance change at λ=340 nm is proportional to the urea concentration. […] Creatinine was measured using mModified Jaffe's method, without deproteinization. […]

[2] = Determination of Kinetic Solubility; format: physicochemical; details: phosphate-buffered saline, aqueous buffer, kinetic from dmso stock; PBS pH 7.4, 2% final DMSO, 25° C., two hours; effective range approximately 2-400 μM
Procedure: A 20 mM stock solution of the test compound in 100% DMSO dilutions were prepared to a theoretical concentration of 400 μM in duplicates in phosphate-buffered saline pH 7.4 (138 mM NaCl, 2.7 mM KCl, 10 mM K-phosphate) with 2% final DMSO. The experimental compound dilutions in PBS were further allowed to equilibrate at 25° C. on a thermostatic shaker for two hours and then filtered through HTS filter plates using a vacuum manifold. The filtrates of test compounds were diluted 2-fold with acetonitrile with 2% DMSO before measuring.
In parallel, compound dilutions in 50% acetonitrile/PBS were prepared to theoretical concentrations of 0 μM (blank), 10 μM, 25 μM, 50 μM, 100 μM, and 200 μM with 2% final DMSO to generate calibration curves. Ondansetron was used as reference compound to control proper assay performance 200 μl of each sample was transferred to 96-well plate and measured in 200-550 nm range with 5 nm step.
The concentrations of compounds in PBS filtrate were calculated using a dedicated Microsoft Excel calculation script. Proper absorbance wavelengths for calculations were selected for each compound manually based on absorbance maximums (absolute absorbance unit values for the minimum and maximum concentration points within 0-3 OD range). Each of the final datasets was additionally visually evaluated by the operator and goodness of fit (R2) was calculated for each calibration curve.

renal progenitor cells = details: zebrafish embryos; proliferation-dependent manner; cited from earlier work
[3] = tested on: cisplatin-induced acute kidney injury (CI-AKI); experiment: cisplatin-induced acute kidney injury (CI-AKI) mouse model, Compound 22; format: in vivo, C57BL/6J mice; details: for gradual recovery of mean body weight: cisplatin 11 mg/kg IP Day 0
Procedure: The aim of the study was to investigate the efficacy of test compound(s) in a (mouse) model for acute kidney injury. Specifically, the study investigated the efficacy of test compound(s) in cisplatin-induced acute kidney injury (CI-AKI) mouse model. For example, the effect of daily repeated intraperitoneal (IP) administration of Compound 22 at doses of 50 mg/kg for 7 consecutive days in four different treatment regimens on development of pathology in mice in CI-AKI model was evaluated. Serum analysis for urea (BUN) was performed on the 5th day and 12th days after cisplatin administration. The mean body weight loss per group was calculated every day of the study as percentage loss of initial (day 0) weight for each individual animal.
Study design, animal selection, handling and treatment were all in accordance with the CRO's study protocols and Institutional Animal Care and Use Guidelines Animal treatment and serum samples preparation were conducted by the Animal Laboratory personnel at the CRO. 100 female C57BL/6J mice 11-14 weeks old were randomized by body weight and divided into five groups, 20 animals each. Body weights ranged from 16.9 to 22.5 g with an average body weight across all groups 19.54 g (SD=1.04; CV=5.3%). Each mouse was treated with a single dose via IP route of administration with cisplatin at the dose of 11 mg/kg on the day 0 of the study. The mice in Group 2 and 4 were repeatedly treated with Compound 22 at the dose of 50 mg/kg with an interval of 24 h for seven consecutive days starting from Day 2 or Day 0 of the study, respectively. […]
To induce acute kidney injury, Cisplatin was administered without dilution as a factory-made 1 mg/ml solution for infusion at the injection volume of 11 ml/kg for the dose of 11 mg/kg. […] Urea (BUN) was determined in the serum using a commercial kit according to the manufacturer's instructions. […] The rate of absorbance change at λ=340 nm is proportional to the urea concentration. […]

[4] = tested on: Ischemia-Reperfusion Induced Acute Kidney Injury (IRI-AKI); experiment: Ischemia-Reperfusion Induced Acute Kidney Injury (IRI-AKI) in rats; format: in vivo, Sprague Dawley male rats; details: 10 mg/kg IV, seven days repeated; 60 minutes bilateral renal occlusion; 3 days after IRI; vs Vehicle treated group
Procedure: The aim of the study was to investigate the efficacy of test compounds in the model of Ischemia-Reperfusion Induced Acute Kidney Injury (IRI-AKI) in Sprague Dawley male rats. IRI-AKI model was developed in experimental animals by applying bilateral renal occlusion. The duration of the occlusion was equal 60 minutes. For instance, rhe effects of seven days repeated intravenous (IV) administration of compound 22 of 10 mg/kg on pathology dynamics in rats exposed to IRI-AKI was assessed. […] Serum analysis for creatinine was performed one day prior to ischemia-reperfusion surgery, 24 hours after, and on the 3rd, 5th, and 7th day after IRI-AKI intervention. Study design, animal selection, handling and treatment were all in accordance with the CRO's study protocols and Institutional Animal Care and Use Guidelines Animal treatment and serum samples preparation were conducted by the Animal Laboratory personnel at the CRO. 28 male Sprague Dawley rats 11-14 weeks old were randomized by body weight All experimental animal were anesthetized prior to surgical intervention by Telazol at the dose of 40 mg/kg body weight and Xylazine at the dose of 7 mg/kg body weight. Acute renal injury model was achieved by performing bilateral renal occlusion. […] Creatinine was measured using mModified Jaffe's method, without deproteinization. […]

[5] = 50 mg/kg IP, 5th day after the cisplatin injection

Row | Compound | solubility kinetic at 2 h [2] [µM] | other results
1 | CN(C)CCOC(=O)CCCSc1ccccc1 [Compound 3, 2-(dimethylamino)ethyl 4-(phenylsulfanyl)butanoate] |  | mean level of creatinine in serum compared to G1 [1, 5]: significantly less; mean level of urea in serum compared to G1 [1, 5]: significantly less; gradual recovery of mean body weight ([1]; G2: 50 mg/kg IP every 24 h for seven days starting Day 2, cisplatin 11 mg/kg IP Day 0): beginning from the sixth day of the study
2 | O=C(O)CC[C@H](NC(=O)[C@H](CO)NC(=O)CCCSc1ccccc1)C(=O)O [Compound 20] | > 400 | 
3 | Cl.NCCC[C@@H](NC(=O)CCCSc1ccccc1)C(=O)O [Compound 8] | 383 | 
4 | O=C(O)C[C@@H](NC(=O)CCCSc1ccccc1)C(=O)O [Compound 14] | 387 (≈ 120 µg/mL) | 
5 | O=C(CCCSc1ccccc1)OCC(O)CO (centres unmarked) [Compound 6] | > 400 | 
6 | CCN1CCC(OC(=O)CCCSc2ccccc2)CC1.O=C(O)C(F)(F)F [Compound 1, 1-ethylpiperidin-4-yl 4-(phenylsulfanyl)butanoate] | > 400 | 
7 | O=C(O)CCCSc1ccccc1 [PTBA, 4-(phenylthio)butanoic acid] |  | effect on pool of renal progenitor cells (renal progenitor cells): seemed to expand the pool of renal progenitor cells
8 | C[C@H](CN(C)C)OC(=O)CCCSc1ccccc1.O=C(O)C(F)(F)F [Compound 18] | 362 | 
9 | NCCCC[C@@H](N)C(=O)NCCOC(=O)CCCSc1ccccc1.O=C(O)C(F)(F)F.O=C(O)C(F)(F)F [Compound 23] | 399 | 
10 | NCCC[C@H](NC(=O)CCCSc1ccccc1)C(=O)N[C@@H](CC(=O)O)C(=O)O.O=C(O)C(F)(F)F [Compound 9] | 383 | 
11 | C[N+](C)(C)CCOC(=O)CCCSc1ccccc1.[Cl-] [Compound 22, N,N,N-trimethyl-2-{[4-(phenylsulfanyl)butanoyl]oxy}ethan-1-aminium chloride] | 398 | gradual recovery of mean body weight ([3]; G2-G3: 50 mg/kg IP once or twice a day for seven days starting Day 2): beginning from the fifth day of the study; mean level of urea in serum compared to G1 ([3]; G2-G5, 50 mg/kg IP, 5th day after the cisplatin injection, vs untreated G1): significantly less; gradual recovery of mean body weight ([3]; G4-G5: 50 mg/kg IP once or twice a day for seven days starting Day 0): beginning from the seventh day of the study; Creatinine level in serum [4]: significantly decreased
12 | CN1CC2(CC(OC(=O)CCCSc3ccccc3)C2)C1 [Compound 15] | ≥ 400 | 
13 | N[C@@H](COC(=O)CCCSc1ccccc1)C(=O)N[C@H](CCC(=O)O)C(=O)O.O=C(O)C(F)(F)F [Compound 21] | > 400 | 
14 | O=C(O)CC[C@@H](NC(=O)CCCSc1ccccc1)C(=O)O [Compound 5] | 396 (≈ 129 µg/mL) | 
15 | O=C(CCCSc1ccccc1)OCCNCCO [Compound 16] | > 400 | 
16 | NCCC[C@@H](NC(=O)[C@@H](CCC(=O)O)NC(=O)CCCSc1ccccc1)C(=O)O.O=C(O)C(F)(F)F [Compound 12] | > 400 | 
17 | CN1CCN(CCOC(=O)CCCSc2ccccc2)CC1.O=C(O)C(F)(F)F [Compound 13] | > 400 | 
18 | O=C(CCCSc1ccccc1)OCCOCCO [Compound 7] | 385 (≈ 109 µg/mL) | 
19 | O=C(CCCSc1ccccc1)O[C@@H]1CCNC1.O=C(O)C(F)(F)F [Compound 17] | > 400 | 
20 | CN1CCC(C)(OC(=O)CCCSc2ccccc2)CC1.O=C(O)C(F)(F)F [Compound 2, 1,4-dimethylpiperidin-4-yl 4-(phenylsulfanyl)butanoate] | > 400 | 
21 | NCCC[C@@H](NC(=O)CCCSc1ccccc1)C(=O)N[C@H](CCC(=O)O)C(=O)O.O=C(O)C(F)(F)F [Compound 11] | 391 | 
22 | CC(C)[C@@H](N)C(=O)NCCCOC(=O)CCCSc1ccccc1 [Compound 24] | 390 (≈ 137 µg/mL) | 
23 | O=C(O)C[C@@H](OC(=O)CCCSc1ccccc1)C(=O)O [Compound 19] | > 400 | 
